# Data reported in US20100004283A1, “4-[(3-FLUOROPHENOXY)PHENYLMETHYL]PIPERIDINE METHANESULFONATE: USES, PROCESS OF SYNTHESIS AND PHARMACEUTICAL COMPOSITIONS” (priority 2006, published 2010).
# Tests used:
# [1] = tested on: 5-HTP-induced syndrome; conditions: mice, orally administered, acute; cited from earlier work
# [2] = tested on: immobility in the tail suspension test; conditions: mice, orally administered, acute; cited from earlier work
# [3] = Studies of stability under forced conditions; type: physicochemical
# Procedure: Additionally, the compound of formula I has shown excellent stability properties. The compound of formula I has remained stable for at least 6 months in studies of stability under forced conditions at 50 and 60° C., as well as at 40° C. and 75% humidity. This represents more than 2 years of stability under normal conditions.
time remained stable ([3]; 40° C. and 75% humidity),time remained stable ([3]; forced conditions at 50° C.),time remained stable ([3]; forced conditions at 60° C.),stability under normal conditions ([3]; represented by the forced-condition results),Compound,"minimal effective dose (MED), potentiation of the 5-HTP-induced syndrome [1]","MED, reduction of the immobility in the tail suspension test [2]"
,,,,Fc1cccc(O[C@H](c2ccccc2)C2CCNCC2)c1 [(S)-4-[(3-fluorophenoxy)phenylmethyl]piperidine],10 mg/kg,10 mg/kg
at least 6 months,at least 6 months,at least 6 months,more than 2 years,"CS(=O)(=O)O.Fc1cccc(OC(c2ccccc2)C2CCNCC2)c1 (stereo not drawn) [compound of formula I, 4-[(3-fluorophenoxy)phenylmethyl]piperidine methanesulfonic acid salt]",,
